Test results: US20170290328A1, “COMPOSITIONS AND METHODS FOR APPLYING AGRICULTURAL PRODUCTS” (priority 2014, published 2017)

How the values were obtained:
Marestail [1] = assay: Additional field trial, Clarity + Roundup PowerMax with adjuvant formulations, weed control; type: in vivo, Conyza canadensis; settings: Clarity tank mixed with Roundup PowerMax, Example 2
Procedure: Additional field trials were performed that compared Sharpen (active ingredient: saflufenacil ([2-chloro-4-fluoro-5-(3-methyl-2,6-dioxo-4-(trifluoromethyl)-3, 6-dihydro-1(2H)-pyrimidinyl)benzoyl]-N-isopropyl-N-methylsulfamide)) or Clarity (active ingredient: diglycolamine salt of 3,6-dichloro-o-anisic acid) to formulations described herein.

Marestail [2] = assay: Roundup PowerMax Plus Sharpen Trials, weed control evaluation; type: in vivo
Procedure: (§1) Each treatment was comprised of a mixture of Roundup PowerMax (glyphosate potassium) at 11 oz/ac plus Sharpen (saflufenacil) diluted and applied at 10 gallons/acre spray volume. A-110 is a polymeric nonionic and alkyl and aryl ethoxylate blend emulsifier commercially available from Adjuvants Unlimited (Tulsa, Okla). Emulsifier “D” is a blend of polyoxyalkenes and ethoxylated castor oil and other components.
(§2) Trials were conducted in Indiana, North Dakota, and Ohio (1 location per state). Weed species varied by location but included glyphosate resistant marestail or kochia. Weed control (herbicide efficacy) evaluations were taken at approximately 7, 14, and 28 days after herbicides were applied.

kochia [3] = assay: as above; type: in vivo; settings: North Dakota, 10% methyl salicylate substituted for methylated soybean oil
Procedure: as §1, §2

Marestail [4] = assay: Instigate Trials, weed control evaluation; type: in vivo
Procedure: (§3) Each treatment was comprised of Instigate applied at 3 oz product/ac, diluted and applied at 10 gallons/acre spray volume.
(§4) Trials were conducted in Indiana, North Dakota, and Ohio (1 location per state).
(§5) Weed species varied by location but included glyphosate resistant marestail or kochia. Weed control (herbicide efficacy) evaluations were taken at approximately 7, 14, and 28 days after herbicides were applied.

kochia [5] = assay: Instigate Trials, weed control evaluation; type: in vivo; settings: North Dakota, 27 days after treatment, with methylated soybean oil and AU-110 and F emulsifiers
Procedure: as §3, §4, §5

Marestail [6] = assay: Paraquat Concentrate Trials, weed control evaluation; type: in vivo; settings: Indiana; Paraquat Concentrate Trials (text prints Instigate)
Procedure: (§6) Each treatment was comprised of Paraquat Concentrate applied at 0.45 pt product/ac, diluted and applied at 10 gallons/acre spray volume.
as §4, §5

common lambsquarters = assay: as above; type: in vivo; settings: North Dakota; Paraquat Concentrate 0.45 pt product/ac
Procedure: as §6, §4, §5

wheat = assay: as above; type: in vivo; settings: North Dakota; Paraquat Concentrate 0.45 pt product/ac
Procedure: as §6, §4, §5

## COC(=O)c1ccccc1O [methyl salicylate]
Marestail [1]
  Change of control of glyphosate-resistant marestail (in words): did not increase control
Marestail [2]; Indiana, Roundup PowerMax 11 oz/ac plus Sharpen
  marestail control (in words): no increase in control
Marestail [2]; Ohio, Roundup PowerMax 11 oz/ac plus Sharpen
  marestail control (in words): numerically greater
Marestail [2]; Ohio, Roundup PowerMax plus Sharpen, 14 days after treatment, with D emulsifier and F emulsifiers
  marestail control (in words): greater
Kochia [3]; with the AU-110 or F emulsifier
  kochia control (in words): not
Kochia [3]; with the D emulsifier
  kochia control (in words): increased control
Marestail [4]; Indiana, Instigate 3 oz product/ac
  marestail control (in words): did not increase marestail control
Marestail [4]; Ohio, Instigate, with methylated soybean oil and F emulsifier
  marestail control (in words): increased marestail control
Kochia [5]
  kochia control (in words): numerically greater
Marestail [6]
  marestail control (in words): did not increase marestail control
Common lambsquarters
  common lambsquarters control (in words): did not increase control
wheat
  wheat control (in words): did not increase control
